From ChEMBL document CHEMBL1122563, “Design, synthesis, and X-ray data of novel potential antipsychotic agents. Substituted 7-phenylquinolizidines: stereospecific, neuroleptic, and antinociceptive properties” (J Med Chem, 1984)

What was measured:
Mus musculus [1] = organism: Mus musculus; assay: animal or person; assay type: functional; details: in Rattus norvegicus, po, 1 h
Description: Peroral dose inhibiting acetic acid induced writhing 1 hr after administration in 50% of the rats.

Mus musculus [2] = organism: Mus musculus; assay: animal or person; assay type: functional; details: po
Description: Peroral dose at which 50% of the mouse start to lick their paws later than 10 s using hot plate assay.

Mus musculus [3] = organism: Mus musculus; assay: animal or person; assay type: functional; details: sc
Description: Subcutaneous dose at which 50% of the mouse start to lick their paws later than 10 s using hot plate assay.

Mus musculus [4] = organism: Mus musculus; assay: animal or person; assay type: functional; details: in Rattus norvegicus, po, 8 h
Description: Peroral dose inhibiting acetic acid induced writhing 8 hr after administration in 50% of the rats.

Mus musculus [5] = organism: Mus musculus; assay: animal or person; assay type: functional; details: in Rattus norvegicus, sc, 0.5 h
Description: Subcutaneous dose inhibiting acetic acid induced writhing 0.5 hr after administration in 50% of the rats.

Mus musculus [6] = organism: Mus musculus; assay: animal or person; assay type: functional; details: in Rattus norvegicus, po, 24 h
Description: Peroral dose inhibiting acetic acid induced writhing 24 hr after administration in 50% of the rats.

Mus musculus [7] = organism: Mus musculus; assay: animal or person; assay type: functional; details: in Rattus norvegicus, sc, 8 h
Description: Subcutaneous dose inhibiting acetic acid induced writhing 8 hr after administration in 50% of the rats.

Rattus norvegicus [8] = organism: Rattus norvegicus; assay: animal or person; details: ip
Description: (§1) Intraperitoneal dose producing a block of avoidance response in 50% of the rats.

[9] = Levels of homovanillic acid (HVA) in rat brain 2 hour after an intraperitoneal injection dose; assay type: ADME, tissue-based; details: in vivo, ip
Rattus norvegicus [10] = organism: Rattus norvegicus; assay: dose producing 50% of the theoretically obtained maximum catalepsy in rats; assay type: functional
Mus musculus [11] = assay: Intraperitoneal dose inhibiting acetic acid induced writhing in 50% of mice; assay type: functional
Rattus norvegicus [12] = organism: Rattus norvegicus
Description: as §1

Mus musculus [13] = organism: Mus musculus; assay: Dose at which 50% of the mouse show not more than one extension movement.; assay type: functional
[14] = Rattus norvegicus, read-out: ED50
[15] = Mus musculus, ip, read-out: ED50

CCCC[C@]1(OC(C)=O)CCN2C[C@H](c3ccccc3)CC[C@H]2C1
ED50 (Mus musculus [1]): 10 mg/kg
ED50 (Mus musculus [2]): 551 mg/kg
ED50 (Mus musculus [3]): 100 mg/kg

CCCC[C@@]1(OC(C)=O)CCN2C[C@H](c3ccccc3)CC[C@H]2C1
ED50 (Mus musculus [4]): 4.9 mg/kg
ED50 (Mus musculus [5]): 0.14 mg/kg
ED50 (Mus musculus [6]): 69 mg/kg
ED50 (Mus musculus [7]): 3.8 mg/kg
ED50 (Mus musculus [3]): 1.1 mg/kg

CC[C@]1(O)CCN2C[C@@H](c3ccc(Cl)cc3Cl)CC[C@@H]2C1
ED50 (Rattus norvegicus [8]): > 30 mg/kg
HVA level [9]: 284%

CC(C)(C)[C@]1(O)CCN2C[C@@H](c3ccccc3Cl)CC[C@@H]2C1
ED50 (Rattus norvegicus [8]): 10 mg/kg
HVA level [9]: 449%
ED50 (Rattus norvegicus [10]; [14]): 20.2 mg/kg

C[C@]1(O)CCN2C[C@@H](c3ccc(Cl)cc3Cl)CC[C@@H]2C1
ED50 (Rattus norvegicus [8]): > 30 mg/kg
HVA level [9]: 157%

CC(C)(C)[C@]1(O)CCN2C[C@@H](c3ccccc3)CC[C@@H]2C1.Cl
ED50 (Rattus norvegicus [8]): > 30 mg/kg
HVA level [9]: 308%

CC(C)(C)[C@]1(O)CCN2C[C@@H](c3ccc(Cl)cc3)CC[C@@H]2C1.Cl
ED50 (Rattus norvegicus [8]): 13.5 mg/kg
HVA level [9]: 290%
ED50 (Rattus norvegicus [10]; [14]): 16 mg/kg

CCCC[C@@]1(OC(C)=O)CCN2C[C@@H](c3ccccc3)CC[C@@H]2C1.Cl
ED50 (Mus musculus [11]; [15]): > 100 mg/kg

CCCC[C@]1(O)CCN2C[C@@H](c3ccc(Cl)cc3Cl)CC[C@@H]2C1.Cl
ED50 (Rattus norvegicus [8]): 42 mg/kg
HVA level [9]: 150%
ED50 (Rattus norvegicus [10]; [14]): > 10 mg/kg

CCC(C)[C@]1(O)CCN2C[C@@H](c3ccc(Cl)cc3Cl)CC[C@@H]2C1.Cl (some centres not stated)
ED50 (Rattus norvegicus [8]): 6.25 mg/kg
HVA level [9]: 467%
ED50 (Rattus norvegicus [10]; [14]): 5.5 mg/kg

Cl.O[C@]1(c2ccccc2)CCN2C[C@@H](c3ccccc3Cl)CC[C@@H]2C1
ED50 (Rattus norvegicus [8]): > 30 mg/kg
HVA level [9]: 99%

CC(=O)O[C@@]1(C(C)(C)C)CCN2C[C@@H](c3ccccc3)CC[C@@H]2C1.Cl
ED50 (Mus musculus [11]; [15]): 2.6 mg/kg

CC(C)(C)[C@]1(O)CCN2C[C@@H](c3ccc(Cl)c(Cl)c3)CC[C@@H]2C1.Cl
ED50 (Rattus norvegicus [8]): > 30 mg/kg
HVA level [9]: 190%
ED50 (Rattus norvegicus [10]; [14]): 30 mg/kg

CC(=O)O[C@@]1(c2ccccc2)CCN2C[C@@H](c3ccccc3Cl)CC[C@@H]2C1.Cl
ED50 (Mus musculus [11]; [15]): 2.8 mg/kg

CC(=O)O[C@@]1(C(C)(C)C)CCN2C[C@@H](c3ccc(Cl)cc3Cl)CC[C@@H]2C1.Cl
ED50 (Mus musculus [11]; [15]): 300 mg/kg

CC(C)(C)[C@]1(O)CCN2C[C@@H](c3cccc(Cl)c3)CC[C@@H]2C1.Cl
ED50 (Rattus norvegicus [8]): > 30 mg/kg
HVA level [9]: 103%
ED50 (Rattus norvegicus [10]; [14]): > 30 mg/kg

CC(C)[C@]1(O)CCN2C[C@@H](c3ccc(Cl)cc3Cl)CC[C@@H]2C1.Cl
ED50 (Rattus norvegicus [8]): 17.5 mg/kg
HVA level [9]: 280%
ED50 (Rattus norvegicus [10]; [14]): 9.2 mg/kg

CC(C)(C)[C@]1(O)CCN2C[C@@H](c3ccc(C(F)(F)F)cc3)CC[C@@H]2C1.Cl
ED50 (Rattus norvegicus [8]): 18.5 mg/kg
HVA level [9]: 369%
ED50 (Rattus norvegicus [10]; [14]): > 30 mg/kg

CC(=O)O[C@@]1(C(C)(C)C)CCN2C[C@@H](c3ccc(Cl)cc3)CC[C@@H]2C1.Cl
ED50 (Mus musculus [11]; [15]): 4 mg/kg

Cl.O[C@@]1(c2ccccc2)CCN2C[C@@H](c3ccccc3Cl)CC[C@@H]2C1
ED50 (Rattus norvegicus [8]): 7 mg/kg
HVA level [9]: 340%
ED50 (Rattus norvegicus [10]; [14]): > 10 mg/kg

CC(C)(C)[C@]1(O)CCN2C[C@@H](c3c(Cl)cccc3Cl)CC[C@@H]2C1.Cl
ED50 (Rattus norvegicus [8]): > 30 mg/kg
ED50 (Rattus norvegicus [10]; [14]): > 30 mg/kg

CC(=O)O[C@]1(C(C)(C)C)CCN2C[C@H](c3ccccc3Cl)CC[C@@H]2C1.Cl
ED50 (Mus musculus [11]; [15]): 28 mg/kg

CC(C)(C)[C@]1(O)CCN2C[C@@H](c3ccc(Cl)cc3Cl)CC[C@@H]2C1.Cl (stereo in doubt; 5e)
HVA level [9]: 557%
ED50 (Rattus norvegicus [10]): 12.2 mg/kg
ED50 (Rattus norvegicus [12]): 6.4 mg/kg

CC(=O)O[C@@]1(C(C)(C)C)CCN2C[C@@H](c3ccccc3Cl)CC[C@@H]2C1.Cl (stereo in doubt; 23)
ED50 (Mus musculus [11]; [15]): 36 mg/kg

CC(C)(C)[C@]1(O)CCN2C[C@@H](c3ccc(Cl)cc3Cl)CC[C@@H]2C1.Cl (stereo in doubt; (+)-5e)
HVA level [9]: 283%
ED50 (Rattus norvegicus [10]): 28.4 mg/kg
ED50 (Rattus norvegicus [12]): >30 mg/kg

CC(C)(C)[C@@]1(O)CCN2C[C@H](c3ccccc3Cl)CC[C@@H]2C1.Cl (stereo in doubt; (+)-5g)
ED50 (Mus musculus [11]): >30 mg/kg

CCCC[C@@]1(O)CCN2C[C@H](c3ccccc3)CC[C@@H]2C1 (stereo in doubt; (+)-19)
ED50 (Mus musculus [11]; [15]): > 30 mg/kg

CC(C)(C)[C@]1(O)CCN2C[C@@H](c3ccc(Cl)cc3Cl)CC[C@@H]2C1.Cl (stereo in doubt; (-)-5e)
HVA level [9]: 350%
ED50 (Rattus norvegicus [10]): 4.4 mg/kg
ED50 (Rattus norvegicus [12]): 4.7 mg/kg

CC(C)(C)[C@@]1(O)CCN2C[C@H](c3ccccc3Cl)CC[C@@H]2C1.Cl (stereo in doubt; (-)-5g)
ED50 (Mus musculus [11]): >10 mg/kg

CC(=O)O[C@@]1(C(C)(C)C)CCN2C[C@@H](c3ccccc3Cl)CC[C@@H]2C1.Cl (stereo in doubt; (-)-23)
ED50 (Mus musculus [13]): > 30 mg/kg

CN1CC[C@]23c4c5ccc(O)c4O[C@H]2[C@@H](O)C=C[C@H]3[C@H]1C5.Cl [MORPHINE HYDROCHLORIDE]
ED50 (Mus musculus [4]): 86 mg/kg
ED50 (Mus musculus [5]): 0.96 mg/kg
ED50 (Mus musculus [1]): 2.4 mg/kg
ED50 (Mus musculus [6]): > 550 mg/kg
ED50 (Mus musculus [2]): 36 mg/kg
ED50 (Mus musculus [7]): 135 mg/kg
ED50 (Mus musculus [3]): 9.6 mg/kg
